Read-outs that look alike come from different tables or passages of the source.
What was measured:
[1] = test system: SARS-CoV-2; assay: microbe, parasite or virus in culture; type: cell-based; conditions: for Emax: Severe acute respiratory syndrome coronavirus 2, HeLa-ACE2, 24 h, curve plateau at infinite concentration, read-out: HeLa-ACE2 CoV-2 Sinf Average; for EC50: Severe acute respiratory syndrome coronavirus 2, HeLa-ACE2, detail block, read-out: HeLa-ACE2 CoV-2 EC50 GeoMean
[2] = test system: SARS-CoV-2; assay: microbe, parasite or virus in culture; type: cell-based; conditions: for EC50: Severe acute respiratory syndrome coronavirus 2, Calu-3, detail block, read-out: Calu-3 CoV-2 EC50 GeoMean; for Emax: Severe acute respiratory syndrome coronavirus 2, Calu-3, 48 h, curve plateau at infinite concentration, read-out: Calu-3 CoV-2 Sinf Average
[3] = test system: HepG2; conditions: human
[4] = test system: HeLa-ACE2 cells; assay: cells; type: cell-based, human; conditions: Homo sapiens, HeLa-ACE2; read-out: HeLa-ACE2 TOA cell count EC50 GeoMean
[5] = test system: HEK293T; conditions: human
[6] = test system: SARS-CoV-2; assay: microbe, parasite or virus in culture; type: cell-based; conditions: for EC50: Severe acute respiratory syndrome coronavirus 2, HeLa-ACE2, detail block, read-out: HeLa-ACE2 TOA CoV-2 EC50 GeoMean; for Emax: Severe acute respiratory syndrome coronavirus 2, HeLa-ACE2, 10 h, curve plateau at infinite concentration, read-out: HeLa-ACE2 TOA CoV-2 Sinf Average
[7] = test system: Calu-3 cells; assay: cells; conditions: Homo sapiens; for EC50: Calu-3, read-out: Calu-3 cell count EC50 GeoMean, detail block; for Emax: Calu-3, 48 h, read-out: Calu-3 cell count Sinf Average
[8] = test system: HeLa-ACE2 cells; assay: cells; conditions: Homo sapiens; for EC50: HeLa-ACE2, read-out: HeLa-ACE2 cell count EC50 GeoMean, detail block; for Emax: HeLa-ACE2, 24 h, read-out: HeLa-ACE2 cell count Sinf Average
[9] = Uninfected HeLa-ACE2 24 h live/dead cytotoxicity counter screen; type: cell-based, human; conditions: human, uninfected HeLa-ACE2 cells, detail block; read-out: HeLa-ACE2 uninfected cytotoxicity CC50 GeoMean
[10] = test system: HeLa-ACE2 cells; assay: as above; type: cell-based, human; conditions: curve plateau at infinite concentration
[11] = in vitro; conditions: human, Calu-3 uninfected cytotoxicity CC50 GeoMean
[12] = test system: Calu-3 cells; conditions: for Calu-3 uninfected cytotoxicity Sinf Average: human, 48 h
[13] = test system: SARS-CoV-2; type: cell-based; conditions: combination with remdesivir
[14] = test system: HEK293T; assay: HEK293T 72 h CellTiter-Glo cytotoxicity; conditions: 72 h
[15] = HEK293T 72 h CellTiter-Glo cytotoxicity; conditions: human, HEK293T cells
[16] = HepG2 72 h CellTiter-Glo cytotoxicity; conditions: human, HepG2 cells
[17] = test system: HepG2; assay: HepG2 72 h CellTiter-Glo cytotoxicity; conditions: 72 h
[18] = test system: Calu-3 cells; assay: Uninfected Calu-3 48 h Cell-Titer Glo cytotoxicity counter screen; conditions: curve plateau at infinite concentration
[19] = selectivity index, uninfected HeLa-ACE2 CC50 / SARS-CoV-2 EC50
[20] = selectivity index, uninfected Calu-3 CC50 / Calu-3 SARS-CoV-2 EC50
[21] = TOA EC50 / HeLa-ACE2 SARS-CoV-2 EC50

| Structure (SMILES) | Emax [1] | EC50 [1] | EC50 [2] | EC50 [4] | EC50 [6] | EC50 [7] | EC50 [8] | CC50 at 24 h [9] | HeLa-ACE2 uninfected cytotoxicity Sinf Average [10] | HeLa-ACE2 SI [1, 19] | HepG2 72-hour cytotoxicity Sinf Average ([3]; 72 h) | HEK293T 72-hour cytotoxicty Sinf Average ([5]; 72 h) | CC50 at 48 h [11] | Emax [6] | TOA:HeLa-ACE2 EC50 Ratio [6, 21] | uninfected Calu-3 CC50 [12] | Calu-3 uninfected cytotoxicity Sinf Average [12] | HeLa-ACE2 SI [1] | Emax [2] | Emax [7] | further results |
| --- | --- | --- | --- | --- | --- | --- | --- | --- | --- | --- | --- | --- | --- | --- | --- | --- | --- | --- | --- | --- | --- |
| CCN(CC)CCCC(C)Nc1ccnc2cc(Cl)ccc12 (stereo not drawn) [Chloroquine, DualTPharma, Chloroquine] | 107% | 0.9 µM | > 9.85 µM | > 9.59 µM | > 9.59 µM | > 9.85 µM | > 9.59 µM | > 39.8 µM | -100% |  |  |  |  |  |  |  |  |  |  |  | HepG2 72-hour cytotoxicity Sinf Average [3]: -100%; HEK293T 72-hour cytotoxicty Sinf Average [5]: -100% |
| N#Cc1ccc2c(c1)[C@H]1CN(CCCCNC(=O)c3ccc(-c4ccccc4)cc3)C[C@@H]1CO2 [S-33084] | 100% | 3.91 µM | > 9.98 µM | > 9.59 µM | 3.93 µM | > 9.98 µM | > 9.59 µM | > 24.8 µM | -100% | > 6.34 | -100% | -100% | > 22.8 µM | 100% | 1.005 | > 22.75 ×÷ 1.601 (n=3) μM | -100% |  |  |  | Calu-3 SI [2, 20]: 2.28 |
| COc1ccc2cc1Oc1ccc(cc1)C[C@H]1c3c(cc4c(c3Oc3cc5c(cc3OC)CCN(C)[C@@H]5C2)OCO4)CCN1C [Cepharanthine] | 98% | 0.988 µM | > 9.98 µM | > 9.59 µM | > 9.5 µM | > 9.98 µM | > 9.59 µM | > 25.4 µM | -100% |  | -100% | -103% | > 27.8 µM | 100% | 9.613 | > 27.816 ×÷ 1.096 (n=3) μM | -100% | > 25.76 |  |  | Calu-3 SI [2]: 2.79 |
| CN1CCN(c2ccc(C(=O)NCc3cnc(C#N)nc3NCC(C)(C)C)cc2)CC1 [Dutacatib] | 101% | 2.69 µM | > 9.98 µM | > 9.59 µM | > 9.36 µM | > 9.98 µM | > 9.59 µM | > 36.1 µM | -100% | > 13.43 | -100% | -100% | > 29.9 µM | 100% | 3.480 | > 29.867 ×÷ 1.001 (n=3) μM | -100% |  | 96% | 100% | HeLa-ACE2 synergy score with remdesivi [13]: 2.955 δ |
| O=C(CCCN1CCN(c2ccc(F)cc2)CC1)NC1c2ccccc2CSc2ccccc21 (stereo not drawn) [Monatepil] | 100% | > 7.79 µM | > 9.98 µM | > 9.61 µM | 5.71 µM | > 9.98 µM | > 9.6 µM | > 39 µM | -100% | > 5.01 |  | -46% | > 29.9 µM | 100% | 0.732 | > 29.9 ×÷ 1.002 (n=4) μM | -100% |  | 100% | -100% |  |
| CCN(CC)Cc1cc(Nc2ccnc3cc(Cl)ccc23)ccc1O [Amodiaquine] | 102% | 1.19 µM | > 9.85 µM | > 9.59 µM | > 9.59 µM | > 9.85 µM | > 0.865 µM | > 39.8 µM | -89% | > 33.48 |  |  |  |  |  |  |  |  |  |  | HEK293T 72-hour cytotoxicty Sinf Average [14]: -87%; CC50 at 72 h [15]: 10 µM; TOA:HeLa-ACE2 EC50 Ratio [6]: 8.060; Emax [8]: -26%; CC50 at 72 h [16]: 3.76 µM; HepG2 72-hour cytotoxicity Sinf Average [17]: -80% |
| COC(CNCC(C)C)COc1c(C)csc1C(=O)CCc1ccccc1 (stereo not drawn) [LG-6-101] | 100% | 3.46 µM | > 9.98 µM | > 9.59 µM | > 9.18 µM | > 9.98 µM | > 9.59 µM | > 35.6 µM | -100% |  | -100% | -100% | > 29.1 µM | 100% | 2.655 | > 29.079 ×÷ 1.048 (n=3) μM | -100% |  | 83% | 100% | Calu-3 SI [2, 20]: 2.91 |
| CN1[C@@H]2CC[C@H]1C[C@@H](N1Cc3ccc4ccccc4c3C1=O)C2 [CR-3124] | 100% | 5.97 µM | > 9.98 µM | > 9.59 µM | > 9.59 µM | > 9.98 µM | > 9.59 µM | > 39.8 µM | -100% |  |  |  |  | 100% | 1.607 |  |  | > 6.67 |  |  | HEK293T 72-hour cytotoxicty Sinf Average [14]: -100%; CC50 ([11]; detail block): > 29.9 µM; Calu-3 uninfected cytotoxicity Sinf Average [18]: -100%; HepG2 72-hour cytotoxicity Sinf Average [17]: -100% |
| N#Cc1c(N)nc(N)nc1N[C@H](c1nc2c(F)ccc(Cl)c2c(=O)n1-c1cccnc1)C1CC1 [GS-9901] | 100% | 3.81 µM | > 9.98 µM | > 9.59 µM | > 9.59 µM | > 9.98 µM | > 9.59 µM | > 31.1 µM | -100% |  | -100% | -97% | > 29.9 µM |  | 2.519 | > 29.867 ×÷ 1.001 (n=3) μM |  | > 8.17 |  | -100% | Emax [8]: 100% |

Reference: article PMC8175350, “Drug repurposing screens identify chemical entities for the development of COVID-19 interventions” (Nature Communications, 2021)
